Measured values published in patent US20070167526A1, “Topical mecamylamine formulations for ocular administration and uses thereof” (priority 2005, published 2007).

Key:
[1] = Ocular bioavailability following intravenous administration (Example 2); format: in vivo, New Zealand White rabbit; details: rabbit; 15 mg/kg i.v.; FIG. 3
Source text: This study was designed to model the ocular bioavailability of mecamylamine when administered systemically. Rabbit eyes are the preferred model for in vivo modeling of ocular drugs, however, the rabbit is not the subject of choice for modeling oral bioavailability. However, systemic administration does emulate orally administered mecamylamine to a reasonable approximation since mecamylamine has rapid absorption and high oral bioavailability. Therefore, intravenous injection was used to model ocular bioavailability of mecamylamine administered systemically, in order to determine the deposition of mecamylamine to the plasma, vitreous and posterior tissues (retina/choroid) of the eye from the blood.
The study comprised 2 groups (each N=6, 12 rabbits total) of male NZW (New Zealand White) rabbits weighing approximately 2.5-3 kg and obtained from Kralek Farms (Turlock, Calif.). Mecamylamine solution, prepared as described in Example 1, at a dose of 15 mg/kg was delivered via i.v. infusion as either a short infusion (1 hr) or slow infusion (6 hr) in rabbits sedated by ketamine/xylazine, with the slow infusion intended to model controlled systemic release of the mecamylamine.
For both groups, samples of the vitreous(≧0.1 ml) and plasma were withdrawn at 6 time points: pre-dose, 30 min, 1, 2, 4, and 6 hr. At 6 hours, all animals were sacrificed and vitreous and retinal tissues were collected. The total amount of mecamylamine administered during each infusion was the same, based on the weight of the individual rabbit.
The concentrations of mecamylamine present in the various samples were analyzed as described in Example 6, below.

[2] = in vivo; details: rabbit
Description: As used herein, the term “topically administered to a rabbit eye,” and cognates thereof, refers to the administration of a particular mecamylamine formulation, including formulations of pharmaceutically acceptable salts of mecamylamine, by applying 100 μL of the mecamylamine formulation to the cornea of each eye (2 drops of 50 μL each), wherein at the time of application the bottom eyelid is separated from the surface of the eye to make a pocket to ensure the entire dose is retained in contact with the eye. When the concentration of mecamylamine in plasma and in the retinal/choroidal tissue is to be measured in connection with the calculation of the ratio of the mecamylamine concentration in the retina/choroid versus the concentration of mecamylamine in plasma, the concentration of each is determined 1 hour after application of the formulation. The amount of mecamylamine present in plasma and the retina/choroid is determined by LC/MS/MS using internal standards of dextromethorphan and diphenhydramine and a standard of known concentration of mecamylamine. An exemplary method of administration of the topical formulation of mecamylamine is provided in Example 5. An exemplary LC/MS/MS method for determining the ratios described herein is given in detail in Example 6. When the mean maximum concentration of mecamylamine in plasma is to be determined, the concentration is again determined as described above and in Example 6. The term “mean maximum concentration of mecamylamine,” and its cognates, as used herein refers to the mean maximum concentration of mecamylamine measured in plasma when monitored over a 6 hour time period after administration of the formulation. When the mean total concentration of mecamylamine in plasma is to be determined, the concentration is again determined as described above and in Example 6. The term “total concentration of mecamylamine in plasma measured as the area under the curve,” (AUC) and cognates thereof, refers to summation of the areas under plot of the drug plasma versus time using a simple trapezoidal method with drug plasma time points taken to include 1, 3 and 6 hours after topical administration. Determination of AUC for corneal tissue, retinal/choroid tissue and aqueous humor is determined similarly. When the concentration of mecamylamine in plasma and in the corneal tissue is to be measured in connection with the calculation of the ratio of the mecamylamine concentration in the cornea (or aqueous humor) versus the concentration of mecamylamine in plasma, the concentration of each is determined 1 hour after application of 50 μl of the formulation. The amount of mecamylamine present in plasma and the cornea (or aqueous humor) is determined by LC/MS/MS using internal standards of dextromethorphan and diphenhydramine and a standard of known concentration of mecamylamine. An exemplary method of administration of the topical formulation of mecamylamine is provided in Example 5. An exemplary LC/MS/MS method for determining the ratios described herein is given in detail in Example 6.
A single dose of a polymer-free solution, gellan gum formulation and hypromellose formulation containing 3% mecamylamine hydrochloride, was instilled in the eyes of rabbits (Dutch-belted male rabbits (Convance, Denver, Pa.) minimum age 2 months and with weights of 1.6 to 1.8 kg). Two animals were euthanized 30 minutes, 1 hour or 3 hours after dosing.
Sample of blood and ocular tissue (obtained as described in previous examples) were analyzed for mecamylamine concentration using an LC MS/MS method up to 3 hours after dosing.
The area-under-the-curve (AUC) was calculated using a trapezoidal rule on a population pharmacokinetic basis (see Table 9).

[3] = system: eyes of New Zealand White rabbits; assay: Pupil diameter, pupillary response and mortality observations after topical ocular instillation in rabbits (Example 10); details: rabbit; 2 drops of 50 μL topically
Description: The objective of this study was to evaluate the ocular pharmacokinetics of a 2% Mecamylamine in a GELRITE solution up to 6 hours following topical instillation into the eyes of New Zealand White rabbits. Nine New Zealand White female rabbits of minimum age of 9 weeks and weight 2-3 kg were obtained from The Rabbit Source (Ramona, Calif.) were used in the study.
On day 1, 2 drops of 50 μL of mecamylamine or vehicle were administered topically into the appropriate eye(s) of each animal as described in Table 13. The time of each dose administration was recorded.

CNC1(C)C2CCC(C2)C1(C)C (stereo not drawn) [mecamylamine, N-2,3,3-tetramethylbicyclo(2.2.1)heptan-2-amine]
amount of mecamylamine reaching the retina/choroid, long infusion versus short infusion [1]: more than 2 fold | Kp at 1 h ([2]; male, Dutch-belted, in vivo): ≥ 1000 | ratio of the concentration of mecamylamine in the aqueous humor versus plasma ([2]; male, Dutch-belted, in vivo, 1 h): at least 50:1 | AUC ([2]; male, Dutch-belted, in vivo, topical or ocular): < 85 ng·h/mL | safety issues during the study ([2]; single ocular dose): No safety issues arose | mortality [3]: no mortality
